Laboratory results taken from paper PMC5556019, “Targeting Apolipoprotein E/Amyloid β Binding by Peptoid CPO_Aβ17-21 P Ameliorates Alzheimer’s Disease Related Pathology and Cognitive Decline” (Scientific Reports, 2017).
Numbered stars: 1 amine (or outer) side, 2 acyl side, 3 side chain; on linkers, the order of the positions; unused ones are H or OH. Bridge positions count the residues as written; N and C are the ends. Square brackets hold non-standard residues; d marks the D form. Peptide text beside a SMILES is read from it. ξ: configuration not given here. N(CH2CH2CO)Gly = O=C(CN(CCC(=O)[*:3])[*:1])[*:2]; Nphe = O=C(O)CNCc1ccccc1; Nleu = CC(C)CNCC(=O)O; ξP = O=C(O)C1CCCN1; Sar = CNCC(=O)O

Columns and labels:
APP/PS1 Tg mice [1] = assay: Plasma total cholesterol level; type: in vivo; conditions: 0.2 mg per mouse i.p. twice weekly for 4 months; p > 0.05
Experimental: (§1) The effect of CPO_Aβ17-21 P on Aβ deposition was tested in APP/PS1 Tg mice with plaque pathology. This AD mouse model develops plaque pathology from the age of 3 months. Animals were divided into two groups and received intraperitoneally (i.p.) injections of 0.2 mg of CPO_ Aβ17–21 P per mouse in sterile saline (n = 11, 5 male, 6 female) or saline alone (n = 10, 5 male, 5 female) as a control twice weekly for 4 months, beginning at age 3 months. During the treatment, veterinary staff monitored animals for any signs of toxicity, such as changes in body weight, physical appearance, and altered behavior. Animals were sacrificed a week after administration of the last treatment dose and behavioral testing. All mouse care and experimental procedures were compliant with guidelines of animal experimentation and were approved by the Institutional Animal Care and Use Committee at the New York University School of Medicine.
Plasma cholesterol level was measured by using a Cholesterol E kit (Wako Diagnostics, Richmond, VA)[45]. The Cholesterol E is an enzymatic colorimetric method for the quantitative determination of total cholesterol in the blood.

[2] = system: apoE4 mediated Aβ40 aggregation; assay: Thioflavin T assay of apoE4 mediated Aβ40 aggregation; type: biochemical, human
Experimental: Peptide Aβ42 or peptoid CPO_Aβ17-21 P were incubated alone at a concentration of 100 µM over a period of 7–10 days at 37 °C in 100 mM Tris buffer (pH 7.4). […] In aggregation inhibition experiments, apoE4 was pre-incubated with CPO_Aβ17-21 P in a molar ratio of 1:2 for 6 hrs at 37 °C followed by addition to freshly reconstituted Aβ42 on ice (molar ratio 100:1:2, Aβ42:apoE4:peptoid). As a control, Aβ42 was also incubated with CPO_Aβ17-21 P at a molar ratio of 100:2. For peptide Aβ40 all the experiments were conducted under the same conditions as Aβ42 except the peptide concentration was 400 µM. The molar ratio of Aβ40:apoE4:CPO_Aβ17-21 P was 100:1:2. (400 µM Aβ40:4 µM apoE4:8 µM CPO_Aβ17-21 P). Fibril formation by the different peptides at various time points was evaluated by a standard Thioflavin-T assay according to previously published protocols, [33].The samples were diluted in buffer containing 50 mM glycine, 2 µM Thioflavin T pH 9.2, and read on a Molecular Devices SpectraMax M2 spectrophotometer (Sunnyvale, CA) at excitation and emission wavelengths 440 and 482 nm.

APP/PS1 Tg mice [3] = assay: Brain Aβ and oligomeric Aβ levels by ELISA and western blot; type: in vivo, mouse
Experimental: as §1
Brains were weighed and homogenized (10% w/v) in tissue homogenization buffer (20 mM Tris base, pH 7.4, 250 mM sucrose, 1 mM EDTA, 1 mM EGTA) with […] phenylmethylsulphonyl fluoride, complete protease inhibitor cocktail and PhosSTOP phosphatase inhibitor cocktail (Roche, Indianapolis, IN, USA) added immediately before homogenization. The extraction of soluble Aβ and total Aβ was according to the method we have published previously, [44]. Brain homogenates were mixed with an equal volume of cold 0.4% diethylamine (DEA)/100 mM NaCl, and subsequently centrifuged at 100,000 × g for 1 hr at 4 °C. The supernatant was neutralized with 1/10 volume of 0.5 M Tris, pH 6.8, flash-frozen on dry ice and stored at −80 °C until used for ELISA analysis as soluble Aβ fraction. […] Soluble and total Aβ levels in the brain were measured by sandwich ELISA which used 6E10 monoclonal antibody as a capture antibody and two detection polyclonal antibodies R162 and R165 specific for Aβ40 and Aβ42, respectively. […]
Oligomeric Aβ (o-Aβ) levels were determined with the Biosensis Oligomeric Amyloid-Beta ELISA kit (Biosensis, Thebarton, South Australia) following the manufacturer’s instructions. In brief, the unknown concentrations of o-Aβ in samples were measured against a standard containing different concentrations of o-Aβ. […] The TMB reaction was stopped and the absorbance of each well was read at 450 nm. The standards provided a linear curve and the best-fit line determined by linear regression were used to calculate the concentration of Aβ oligomers in the samples
Brain homogenates were centrifuged at 100,000 × g for 1 hr at 4 °C. The supernatants were collected and the total protein concentrations were determined by the bicinchoninic acid assay (BCA; Pierce, Rockford, IL). […]

SMILES: CC(C)CN1CC(=O)N2CCCC2C(=O)N(Cc2ccccc2)CC(=O)N(Cc2ccccc2)CC(=O)N(C)CC(=O)N(CC(N)=O)CCC1=O (stereo not shown) [CPO_Aβ17-21 P] ([Nleu][ξP][Nphe][Nphe][Sar][N(CH2CH2CO)Gly]-NH2; lactam N-6)
- plasma total cholesterol level, treated versus vehicle (APP/PS1 Tg mice [1]): no significant difference
- inhibition of apoE4 mediated Aβ40 aggregation ([2]; 400 µM Aβ40:4 µM apoE4:8 µM peptoid, apoE4 pre-incubated with peptoid 6 hrs 37 °C, p = 0.0034): significant inhibition
- Aβ40 fibril formation with peptoid versus Aβ40 alone ([2]; Aβ40 + peptoid without apoE4, molar ratio 100:2): no significant difference
- Aβ42 in the insoluble (formic acid) brain fraction (APP/PS1 Tg mice [3]; ELISA, p < 0.0001 versus vehicle): Reduction
- Aβ40 in the insoluble (formic acid) brain fraction (APP/PS1 Tg mice [3]; ELISA, p < 0.001 versus vehicle): Reduction
- Aβ oligomeric species by western blot (APP/PS1 Tg mice [3]; anti-amyloid antibody 4G8, brain homogenates, p < 0.05 versus vehicle): Reduction
- Aβ oligomeric species by ELISA (APP/PS1 Tg mice [3]; brain homogenates, p < 0.05 versus vehicle): Reduction
